Data taken from US10525143B2, “Conjugate of polyethylene glycol and anesthetic, and preparation method thereof” (JenKem Technology Co., Ltd. (Tianjin), priority 2015, dated 2020).
Counter-ions that a name gives are not always drawn.

Columns and labels:
[1] = background statement; cited from earlier work
[2] = single dose injected; postoperative pain; background statement; cited from earlier work
[3] = tested on: SD rats; test: Von Frey test in rat incisional pain model (Brennan method); assay type: in vivo; conditions: for Von Frey Hairs (g) 1 h: paw withdrawal threshold 1 h after surgery; for Von Frey Hairs (g) 1 h / Von Frey Hairs (g) 3 h / Von Frey Hairs (g) 6 h / Von Frey Hairs (g) 12 h / Von Frey Hairs (g) 24 h: injected in the incision, 10 mg/kg (counted by lidocaine) or 4 mg/kg (counted by bupivacaine); for Von Frey Hairs (g) 1 h / Von Frey Hairs (g) 3 h / Von Frey Hairs (g) 6 h / Von Frey Hairs (g) 12 h / Von Frey Hairs (g) 24 h / Von Frey Hairs (g) Basline: x±s; for Von Frey Hairs (g) 3 h: paw withdrawal threshold 3 h after surgery; for Von Frey Hairs (g) 6 h: paw withdrawal threshold 6 h after surgery; for Von Frey Hairs (g) 12 h: paw withdrawal threshold 12 h after surgery; for Von Frey Hairs (g) 24 h: paw withdrawal threshold 24 h after surgery; for Von Frey Hairs (g) Basline: paw withdrawal threshold before surgery and administration, 6 rats per group

| Compound | duration of the drug (local anesthesia) [1] [h] | Von Frey Hairs (g) 1 h [3] [g] | Von Frey Hairs (g) 3 h [3] [g] | Von Frey Hairs (g) 6 h [3] [g] | Von Frey Hairs (g) 12 h [3] [g] | Von Frey Hairs (g) 24 h [3] [g] | Von Frey Hairs (g) Basline [3] [g] | other results |
| --- | --- | --- | --- | --- | --- | --- | --- | --- |
| CCN(CC)CC(=O)Nc1c(C)cccc1C [lidocaine] | 1 to 2 |  |  |  |  |  |  |  |
| CCCCN1CCCC[C@H]1C(=O)Nc1c(C)cccc1C [L-bupivacaine] | 5 to 7 |  |  |  |  |  |  |  |
| CCCCN1CCCCC1C(=O)Nc1c(C)cccc1C (stereo not drawn) [Bupivacaine] |  |  |  |  |  |  |  | duration of analgesic effect [2]: less than 7 h |
| CCCCN1CCCCC1C(=O)Nc1c(C)cccc1C (stereo not drawn) [Bupivacaine hydrochloride] |  | 4.3 ± 0.7 | 6.6 ± 0.4 | 5.3 ± 0.5 | 3.4 ± 0.9 | 1.7 ± 0.4 | 7.3 ± 0.7 | duration of analgesia (in words) ([3]; discussion of Table 1): relatively long duration; onset of analgesic effect (in words) ([3]; discussion of Table 1): takes effect more slowly than lidocaine hydrochloride |
| CCN(CC)CC(=O)Nc1c(C)cccc1C [Lidocaine hydrochloride] |  | 6.6 ± 0.5 | 6.1 ± 0.4 | 4.0 ± 0.6 | 1.5 ± 0.4 | 1.4 ± 0.2 | 7.5 ± 0.8 |  |
| CCCN1CCCC[C@H]1C(=O)Nc1c(C)cccc1C [ropivacaine] | 4.4 |  |  |  |  |  |  |  |
